According to patent US7714014B2, “Targeting GLI proteins in human cancer by small molecules” (The Regents of the University of California, priority 2005, dated 2010):

Experiments:
SW480 (colon cancer) = test: Apoptosis analysis (Annexin V FITC, flow cytometry); format: cell-based, human; conditions: 3 days
Method: Apoptosis was analyzed by using an Annexin V FITC Apoptosis Detection Kit (Biosource, Camarillo, Calif.), according to the manufacturer's protocol. After treatment with different small molecule compounds at various concentrations for about 3 days, cells were harvested by trypsinization, stained and immediately analyzed by flow cytometry (FACScan; Decton Dickinson, Franklin Lake, N.J.). Early apoptotic cells with exposed phosphatidylserine but intact cell membranes will bind to Annexin V-FITC, but not propidium iodide (PI). Cells in necrotic or late apoptotic stages will be labeled with both Annexin V-FITC and PI. “% apoptotic cells” or “% apoptosis” refers to the combined early and late apoptotic cells.
Flow cytometry was used to examine apoptosis in colon cancer cells after treatment of cells with small molecule compounds of the invention.

[1] = Pharmacokinetic analysis in mice (i.p. injection); format: in vivo, mouse
Method: Three mice were i.p. injected in the abdomens with small molecule compounds FN1-5 at a dose of 30 mg/kg body weight. Then plasma was collected from the tail-vein of each mouse at 10 min, 2 hours, 6 hours and 24 hours after FN1-5 injection.
Similarly, the pharmacokinetic properties of small molecule compound FN1-8 were analyzed (FIG. 21B). Comparing the uptake of FN1-8 to FN1-5, the uptake of FN1-5 after i.p injection seems to be better, by about 2 fold.

[2] = system: NSCLC cell lines A549, H358, and H322; test: Dose titration, cell killing; format: cell-based, human; conditions: 7.5-30 μM tested, 3 days
Method: Typically, the small molecule compounds of the present invention were dissolved in DMSO at a concentration of 30 mM. The small molecule compounds were then tested under cell culture conditions at different concentrations ranging from 0, 10, 30, 50, to 100 uM. To determine cell survival after treatment, the cells were incubated with the small molecule compounds in 6-well plates for about 3 days. After removal of the cell culture medium, 1-ml of 0.5% crystal violet solution (prepared in 20% ethanol and 20% methanol) was added to stain the cells for 5 min. Then the crystal violet solution was rinsed clean with tap water. Cell survival was estimated based on the density of crystal stained plates.
Dose titration experiments of small molecule compound FN1-8 was performed using the NSCLC cell lines A549, H358, and H322. A 549, H358, and H322 cells were plated in 6-well plates and incubated with DM SO (control) or 7.5 μM, 10 μM, 15 μM, 20 μM, and 30 μM of FN1-8, respectively, for 3 days. A dramatic and dose-dependent cell killing in these cell lines was observed when FN1-8 was added at 15 μM or more. FN1-8 induced cell killing in A549 and […] at slightly lower concentrations than in H322 cells (data not shown). After 3 days, approximately 28% of the A549 cells and 58% of H358 underwent apoptosis when incubated with 20 μM FN1-8 (Table 3).

[3] = system: NSCLC cells A549, H358, and H322; test: MTS cell proliferation assay; format: cell-based, human; conditions: 7.5 μM or 15 μM; dose-dependent, already after 1 day
From the text: (§1) Another assay for determining the number of viable cells in proliferation or cytotoxicity assays is the MTS assay, a calorimetric method. MTS assay reagents are commercially available (Promega Corp., Madison, Wis.). The reagent contains a tetrazolium compound [3-(4,5-dimethylthiazol-2-yl)-5-(3-carboxymethoxyphenyl)-2-(4-sulfophenyl)-2H-tetrazolium, inner salt; MTS] and an electron coupling reagent (phenazine ethosulfate; PES). PES has enhanced chemical stability, which allows it to be combined with MTS to form a stable solution. The MTS tetrazolium compound (Owen.s reagent) is bioreduced by cells into a colored formazan product that is soluble in tissue culture medium. This conversion may be accomplished by NADPH or NADH produced by dehydrogenase enzymes in metabolically active cells. The quantity of formazan product as measured by the absorbance at 490 nm is directly proportional to the number of living cells in culture. Because the MTS formazan product is soluble in tissue culture medium, this assay requires fewer steps than procedures that use tetrazolium compounds such as MTT. The formazan product of MTT reduction is a crystalline precipitate that requires an additional step in the procedure to dissolve the crystals before recording absorbance readings at 570 nm. […]

[4] = system: melanoma cells Malme-3M, A375, G361, SK-Mel-2, SK-Mel-5, and SK-Mel-28; test: MTS cell proliferation assay; format: cell-based, human; conditions: 5 μM or 10 μM
From the text: as §1

[5] = system: cytosolic β-catenin in human normal skin fibroblasts (Malme-3); test: Western blot of cytosolic β-catenin; format: cell-based; conditions: 10 μM or 20 μM
Method: […] Protein concentrations were measured using Bio-Rad Protein Assay reagent. Whole cell lysate protein (5-20 ug) were boiled for 5 min and separated by 10-20% SDS-PAGE. Proteins were transferred to an Immobilon-P membrane (Millipore Corp., Bedford, Mass.) using semi-dry transfer cell (Bio-Rad; Benicia, Calif.). The membranes were blocked with 5% nonfat milk powder and 0.1% Tween 20 in Tris-buffer saline overnight at 4° C. and then incubated with primary antibody for 1 h at room temperature. Membranes were washed in 5% nonfat milk powder and 0.1% Tween 20 in Tris-buffer saline for three 10-min periods. Horseradish peroxidase-conjugated goat anti-rabbit or donkey anti-mouse antibodies were used as secondary antibodies. Proteins were visualized with chemiluminescence luminol reagents (Santa Cruz Bio-technology). Anti-Dvl-3, and anti-Survivin, antibodies were from Santa Cruz Biotechnology (Santa Cruz, Calif.). Anti-Caspase3 antibody was from Oncogene (Cambridge, Mass.). Anti-β-Actin antibody was from Sigrna-Aldrich Corp. (St. Louis, Mo.). Anti-β-catenin antibody was from Transduction Laboratories (Lexington, Ky.). Anti-Cytochrome c antibody was from BD Biosciences (San Diego, Calif.). For detecting alteration of β-catenin cytosolic extracts were prepared and examined as described previously in the publications from our lab. […]

| Compound | % of apoptotic cells (SW480 (colon cancer); SW480, 10 μM) [%] | % of apoptotic cells (SW480 (colon cancer); SW480, 100 μM) [%] | uptake of FN1-5 relative to FN1-8 ([1]; i.p. injection) | time of uptake into plasma ([1]; i.p., 30 mg/kg) [min] | time within which plasma/serum concentration diminishes ([1]; i.p., 30 mg/kg) [h] | concentration at which dramatic and dose-dependent cell killing was observed [2] [µM] | cell proliferation (MTS) [3] | cell proliferation (MTS) [4] | cytosolic β-catenin level [5] |
| --- | --- | --- | --- | --- | --- | --- | --- | --- | --- |
| O=C(NCCCCCO)C1C(c2ccccc2)=NN(c2ccccc2)C1c1ccccc1 (stereo not drawn) [FN1-5, N-(5-Hydroxypentyl)-1,3,5-triphenyl-4,5-dihydro-pyrazole-4-carboxyamide] | 10.8 | 58.6 | about 2 fold | ≤ 10 | ≤ 24 | – | – | – | – |
| O=C(NCCc1ccc(O)cc1)C1C(c2ccccc2)=NN(c2ccccc2)C1c1ccccc1 (stereo not drawn) [FN1-8, N-(2-(4-Hydroxyphenyl)ethyl)-1,3,5-triphenyl-4,5-dihydro-pyrazole-4-carboxyamide] | – | – | – | – | – | ≥ 15 | significantly inhibited cell proliferation | significantly inhibited cell proliferation | no noticeable change |
